Results taken from US20210079402A1, “INHIBITION OF ZSCAN4 FOR INHIBITION OF TUMOR GROWTH” (University of Maryland, Baltimore, priority 2018, published 2021).
Each block holds one molecule with its values, some of them ahead of it. Where a SMILES comes first, the peptide text is derived from it. The star is where a group is joined. Cbz = O=C(OCc1ccccc1)*

Experiments:
[1] = test system: autophagy in tet-ZSCAN4 Tu167 cells; assay: Autophagy pathway assay (immunoblot); assay type: cell-based, human; settings: 5 nM Bafilomycin A1 or 25 μM Chloroquine
Method: tet-ZSCAN4 Tu167 cells were treated for 24 h with Dox and then autophagy inhibitors: 5 nM of Bafilomycin A1 or 25 μM of Chloroquine (Sigma) were added for 24 h. Whole cell lysate (50 μg) in RIPA buffer was used on 8% SDS-PAGE analyzed by immunoblot to visualize the following antigens: anti-ZSCAN4 (1:1000; Origene), anti-p62 (1:5000; Sigma), anti-LC3 (1:1000; CellSignaling Technology), Anti-Beta Actin (1:10,000; Millipore). All data shown represent at least 3 independent experiments.

proteasome [2] = assay: ZSCAN4 accumulation after proteasome inhibition (immunoblot); assay type: cell-based, human
Method: Nuclear proteins were fractionated using Nuclear Extraction Kit following manufacture's protocol (Active Motif). Total cell lysate was prepared in RIPA buffer and sonicated. For the detection of endogenous ZSCAN4 in Tu167 cells, cells were harvested by accutase (Millipore) and Cytoskeleton buffer (10 mM PIPES, 300 mM sucrose, 100 mM NaCl, 3 mM MgCl2, 1 mM EGTA and 0.5% Triton X100) was used to fractionate cytosolic proteins. Then, pellets were lysed in urea solution (8 M Urea in 0.01 Tris pH 8+0.1 M NaH2PO4) and sonicated. Nuclear proteins were electrophoresed in 8% polyacrylamide gels and transferred to a PVDF membrane. Immunoblot was performed using the following primary antibodies: ZSCAN4 (Origene; 1:1000), GAPDH (Santa Cruz; 1:5000), Actin (Sigma; 1:500), Lamin B (Santa Cruz; 1:2000) and with HRP (horseradish peroxidase) conjugated secondary antibodies (Millipore; 1:5000). Protein bands were detected using Pierce ECL Western Blotting Substrate (Thermo Scientific). SuperSignal West Femto (Thermo Scientific) was used to detect endogenous ZSCAN4 in Tu167 cells. All immunoblots shown represent at least 3 independent experiments.
WT Tu167 cells were treated with indicated concentration of MG132 for 3-12 h. Cells treated with vehicle only were used as controls. Nuclear protein was isolated using urea extraction buffer. Then, 100 μg of nuclear lysate was diluted in IP-RIPA buffer with 0.1% SDS and denatured by heating to 90° C. for 10 minutes. Samples were taken for co-immunoprecipitation and immunoblot analyses.
This prompted examination of the UPS. tet-ZSCAN4 cells were incubated with the proteasome inhibitor MG132 at multiple time points. […] Furthermore, we show a time dependence (FIG. 18C) and a dose response (FIG. 18D) to proteasome inhibition by MG132.
To exclude that the response was specific to the exogenous ZSCAN4 induction, wild type (WT) Tu167 cells were treated with 5 uM MG132 for 0-12 h.

proteasome [3] = assay: ZSCAN4 / K48 ubiquitin co-localization by confocal microscopy; assay type: cell-based, human; settings: WT Tu167 cells, 5 h; untreated about 5%
Method: Cells were fixed in ice cold methanol/acetic acid (3:1). The fixed cells were dropped on microscope slides. Antigen retrieval was performed followed by blocking for 10 min at room temperature. Primary antibody was incubated overnight at 4° C. for the following antigens: ZSCAN4 (Origene, 1:1000) and Ubiquitin Lysine 48 (Millipore 1: 2000). The slides were washed and incubated with secondary antibodies conjugated with Alexa-488 or 568 at room temperature for 1 h and then treated with DAPI and To-Pro-3 to stain the nuclei. Slides were mounted and visualized by a Zeiss 510-confocal microscope. Co-localization analyses were performed by ImageJ software (Schneider et al., 2012);
To further validate the lysine 48 polyubiquitination of ZSCAN4 protein, WT Tu167 cells were treated with or without MG132 for 5 h and co-immunostained for anti-K48-Ub and anti-ZSCAN4 (FIG. 19C).

telomerase = target: T1, telomerase (UniProt O14746 1-1132, limits assumed); assay: ZSCAN4 complex analysis (ZSCAN4 immunoprecipitation followed by mass spectrometry)
T1 construct: The tie to the hTERT protein subunit is my reading; also called hTERT
T1 sequence (O14746 whole entry): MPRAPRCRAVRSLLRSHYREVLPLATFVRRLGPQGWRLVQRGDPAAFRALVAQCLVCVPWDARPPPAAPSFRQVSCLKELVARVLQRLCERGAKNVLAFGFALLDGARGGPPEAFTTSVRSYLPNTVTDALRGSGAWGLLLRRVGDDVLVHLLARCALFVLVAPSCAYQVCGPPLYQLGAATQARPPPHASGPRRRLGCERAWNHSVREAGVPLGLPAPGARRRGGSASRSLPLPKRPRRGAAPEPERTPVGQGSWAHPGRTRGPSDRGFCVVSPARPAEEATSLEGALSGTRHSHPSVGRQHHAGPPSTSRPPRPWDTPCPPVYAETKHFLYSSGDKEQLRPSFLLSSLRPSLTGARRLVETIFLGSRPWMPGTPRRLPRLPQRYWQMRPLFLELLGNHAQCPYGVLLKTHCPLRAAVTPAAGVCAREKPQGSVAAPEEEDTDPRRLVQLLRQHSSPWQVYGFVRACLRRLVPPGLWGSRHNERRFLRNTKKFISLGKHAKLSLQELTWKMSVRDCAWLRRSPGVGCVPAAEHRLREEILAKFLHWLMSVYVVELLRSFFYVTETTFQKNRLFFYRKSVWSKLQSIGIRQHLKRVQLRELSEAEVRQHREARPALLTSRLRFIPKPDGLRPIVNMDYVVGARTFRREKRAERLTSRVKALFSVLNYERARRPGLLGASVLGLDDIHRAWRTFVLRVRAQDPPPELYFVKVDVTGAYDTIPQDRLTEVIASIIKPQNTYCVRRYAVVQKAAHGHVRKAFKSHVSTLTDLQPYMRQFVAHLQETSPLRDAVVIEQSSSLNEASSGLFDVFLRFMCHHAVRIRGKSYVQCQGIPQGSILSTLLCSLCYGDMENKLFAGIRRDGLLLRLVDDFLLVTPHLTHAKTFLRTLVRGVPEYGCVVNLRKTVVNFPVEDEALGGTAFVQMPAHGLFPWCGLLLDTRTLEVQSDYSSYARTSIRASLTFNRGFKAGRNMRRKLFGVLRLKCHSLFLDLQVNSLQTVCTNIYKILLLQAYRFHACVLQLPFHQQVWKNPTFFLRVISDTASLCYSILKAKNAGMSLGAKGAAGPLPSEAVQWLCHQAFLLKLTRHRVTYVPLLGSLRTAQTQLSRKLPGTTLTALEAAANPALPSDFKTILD

Molecule: CCN(CC)CCCC(C)Nc1ccnc2cc(Cl)ccc12 (stereo not drawn) [Chloroquine]
ZSCAN4 levels [1]: remained unchanged
p62 and LC-3 levels [1]: accumulate

Molecule: CC(C)C[C@@H](C=O)NC(=O)[C@H](CC(C)C)NC(=O)[C@H](CC(C)C)NC(=O)OCc1ccccc1 [MG132] (Cbz-Leu-Leu-Leu-aldehyde)
ZSCAN4 accumulation versus dose (proteasome [2]; tet-ZSCAN4 cells): dose response
ZSCAN4 accumulation over time (proteasome [2]; tet-ZSCAN4 cells, multiple time points through 12 h): time dependent accumulation of ZSCAN4
endogenous ZSCAN4 level (proteasome [2]; wild type Tu167 cells, 5 uM, 0-12 h): endogenous ZSCAN4 accumulates
fraction of ZSCAN4 co-localized with K48-Ub relative to untreated (proteasome [3]): 4 fold

Molecule: CO/C1=C\C(C)=C\[C@@H](C)[C@@H](O)[C@@H](C)C/C(C)=C/C=C/[C@H](OC)[C@@H]([C@@H](C)[C@@H](O)[C@H](C)[C@@]2(O)C[C@@H](O)[C@H](C)[C@@H](C(C)C)O2)OC1=O [Bafilomycin A1]
ZSCAN4 levels [1]: remained unchanged
p62 and LC-3 levels [1]: accumulate

binding result (telomerase): no binding
B1: human ZSCAN4 (Zinc finger and SCAN domain containing 4) (other, UniProt Q8NAM6 1-433, looked up)
chain: MALDLRTIFQCEPSENNLGSENSAFQQSQGPAVQREEGISEFSRMVLNSFQDSNNSYARQELQRLYRIFHSWLQPEKHSKDEIISLLVLEQFMIGGHCNDKASVKEKWKSSGKNLERFIEDLTDDSINPPALVHVHMQGQEALFSEDMPLRDVIVHLTKQVNAQTTREANMGTPSQTSQDTSLETGQGYEDEQDGWNSSSKTTRVNENITNQGNQIVSLIIIQEENGPRPEEGGVSSDNPYNSKRAELVTARSQEGSINGITFQGVPMVMGAGCISQPEQSSPESALTHQSNEGNSTCEVHQKGSHGVQKSYKCEECPKVFKYLCHLLAHQRRHRNERPFVCPECQKGFFQISDLRVHQIIHTGKKPFTCSMCKKSFSHKTNLRSHERIHTGEKPYTCPFCKTSYRQSSTYHRHMRTHEKITLPSVPSTPEAS
notes: Immunoprecipitated from nuclear protein lysates; also called FLAG-ZSCAN4; tet-FLAG-ZSCAN4
